Data as given in PubChem BioAssay AID1918995 (Molecular Pharmacology Branch, DTP, NCI, 2023).
Where “and” joins values, the source holds several entries; their conditions need not be identical. Equal entries are not always repeated.

Tested on: 324938-238-R-J1-PDC complex spheroid growth, % test/control
Assay: Anticancer human tumor 324938-238-R-J1-PDC patient-derived bladder carcinoma cell line growth inhibition [AhR]
Conditions: for viability, T/C: stronger effect = lower value; active means viability on the fitted dose curve at most 10% of control; inactive means the rest
Procedure, shortened: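 Complex tumor spheroids co-cultured with HUVEC and human MSC stroma; AhR antagonists tested in combination with standard-of-care and investigational agents. Top concentration at or near clinical Cmax (else 10 microM), half-log dilutions; growth expressed as percent test/control.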

[1] = curve of first compound, second compound 0.1 µM
[2] = curve of first compound, second compound 0.316 µM
[3] = curve of first compound, second compound 1 µM
[4] = curve of first compound, second compound 3.16 µM
[5] = curve of first compound, second compound 10 µM
[6] = second compound 0.1 µM, first compound 0.0316 µM
[7] = second compound 0.1 µM, first compound 0.1 µM
[8] = second compound 0.1 µM, first compound 0.316 µM
[9] = second compound 0.1 µM, first compound 1 µM
[10] = second compound 0.1 µM, first compound 3.16 µM
[11] = second compound 0.1 µM, first compound 10 µM
[12] = second compound 0.316 µM, first compound 0.0316 µM
[13] = second compound 0.316 µM, first compound 0.1 µM
[14] = second compound 0.316 µM, first compound 0.316 µM
[15] = second compound 0.316 µM, first compound 1 µM
[16] = second compound 0.316 µM, first compound 3.16 µM
[17] = second compound 0.316 µM, first compound 10 µM
[18] = second compound 1 µM, first compound 0.0316 µM
[19] = second compound 1 µM, first compound 0.1 µM
[20] = second compound 1 µM, first compound 0.316 µM
[21] = second compound 1 µM, first compound 1 µM
[22] = second compound 1 µM, first compound 3.16 µM
[23] = second compound 1 µM, first compound 10 µM
[24] = second compound 3.16 µM, first compound 0.0316 µM
[25] = second compound 3.16 µM, first compound 0.1 µM
[26] = second compound 3.16 µM, first compound 0.316 µM
[27] = second compound 3.16 µM, first compound 1 µM
[28] = second compound 3.16 µM, first compound 3.16 µM
[29] = second compound 3.16 µM, first compound 10 µM
[30] = second compound 10 µM, first compound 0.0316 µM
[31] = second compound 10 µM, first compound 0.1 µM
[32] = second compound 10 µM, first compound 0.316 µM
[33] = second compound 10 µM, first compound 1 µM
[34] = second compound 10 µM, first compound 3.16 µM
[35] = second compound 10 µM, first compound 10 µM
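Further: spheroids exposed to agents for seven days before viability read.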

O=C(C=Cn1cnc(-c2cc(C(F)(F)F)cc(C(F)(F)F)c2)n1)NNc1cnccn1 + Cc1ccccc1N=Nc1ccc(NC(=O)c2ccnn2C)c(C)c1
178 nM: IC50 [3]
171 nM: IC50 [2]
144 nM: IC50 [4]
172 nM: IC50 [5]
inactive: viability, T/C (second compound 0.1 µM, first compound 0.00949 µM) 91.4% | viability, T/C (second compound 0.1 µM, first compound 0.03 µM) 95.5% | viability, T/C (second compound 0.1 µM, first compound 0.0949 µM) 62.7% | viability, T/C (second compound 0.1 µM, first compound 0.3 µM) 35.8% | viability, T/C (second compound 0.1 µM, first compound 0.949 µM) 19.1% | viability, T/C (second compound 0.1 µM, first compound 3 µM) 8.4% | viability, T/C (second compound 0.316 µM, first compound 0.00949 µM) 90.4% | viability, T/C (second compound 0.316 µM, first compound 0.03 µM) 90.6% | viability, T/C (second compound 0.316 µM, first compound 0.0949 µM) 67.8% | viability, T/C (second compound 0.316 µM, first compound 0.3 µM) 32.1% | viability, T/C (second compound 0.316 µM, first compound 0.949 µM) 19.9% | viability, T/C (second compound 0.316 µM, first compound 3 µM) 11.9% | viability, T/C (second compound 1 µM, first compound 0.00949 µM) 86.4% | viability, T/C (second compound 1 µM, first compound 0.03 µM) 79.8% | viability, T/C (second compound 1 µM, first compound 0.0949 µM) 65.6% | viability, T/C (second compound 1 µM, first compound 0.3 µM) 37.1% | viability, T/C (second compound 1 µM, first compound 0.949 µM) 18.6% | viability, T/C (second compound 1 µM, first compound 3 µM) 10.7% | viability, T/C (second compound 3.16 µM, first compound 0.00949 µM) 84.7% | viability, T/C (second compound 3.16 µM, first compound 0.03 µM) 72% | viability, T/C (second compound 3.16 µM, first compound 0.0949 µM) 58.2% | viability, T/C (second compound 3.16 µM, first compound 0.3 µM) 37.5% | viability, T/C (second compound 3.16 µM, first compound 0.949 µM) 23.4% | viability, T/C (second compound 3.16 µM, first compound 3 µM) 16.3% | viability, T/C (second compound 10 µM, first compound 0.00949 µM) 78.4% | viability, T/C (second compound 10 µM, first compound 0.03 µM) 78.7% | viability, T/C (second compound 10 µM, first compound 0.0949 µM) 62.5% | viability, T/C (second compound 10 µM, first compound 0.3 µM) 37.2% | viability, T/C (second compound 10 µM, first compound 0.949 µM) 26.7% | viability, T/C (second compound 10 µM, first compound 3 µM) 18.6%
173 nM: IC50 [1]

COc1cc(C2c3cc4c(cc3C(OC3OC5COC(C)OC5C(O)C3O)C3COC(=O)C23)OCO4)cc(OC)c1O (configuration not stated) + CC(CO)NC(=O)c1cc(-c2ccc(Cl)cc2)nn(-c2cnn(C)c2)c1=O
171 nM: IC50 [5]
243 nM: IC50 [4]
427 nM: IC50 [2]
inactive: viability, T/C [6] 92.8% | viability, T/C [7] 96% | viability, T/C [8] 52.4% | viability, T/C [9] 30.1% | viability, T/C [10] 26.8% | viability, T/C [11] 21.3% | viability, T/C [12] 101% | viability, T/C [13] 90.3% | viability, T/C [14] 56.9% | viability, T/C [15] 30.3% | viability, T/C [16] 28.6% | viability, T/C [17] 23.4% | viability, T/C [18] 95.6% | viability, T/C [19] 94.9% | viability, T/C [20] 58.2% | viability, T/C [21] 30.2% | viability, T/C [22] 31.5% | viability, T/C [23] 21.7% | viability, T/C [24] 70.6% | viability, T/C [25] 73.9% | viability, T/C [26] 43.4% | viability, T/C [27] 30.8% | viability, T/C [28] 28.8% | viability, T/C [29] 22.7% | viability, T/C [30] 66.7% | viability, T/C [31] 57% | viability, T/C [32] 41.2% | viability, T/C [33] 36.5% | viability, T/C [34] 32.7% | viability, T/C [35] 23.9%
351 nM: IC50 [1]
441 nM: IC50 [3]

NS(=O)(=O)OCC1CC(n2ccc3c(NC4CCc5ccccc54)ncnc32)CC1O (configuration not stated)
1860 nM and 1750 nM and 616 nM: IC50 (curve of compound)
inactive: viability, T/C (compound 0.0316 µM) 120% and 104% and 97.8% | viability, T/C (compound 0.1 µM) 79.3% and 98% and 80.5% | viability, T/C (compound 0.316 µM) 97.1% and 99.1% and 65.3% | viability, T/C (compound 1 µM) 64.7% and 67.5% and 40.5% | viability, T/C (compound 3.16 µM) 30.8% and 30.9% and 26.9% | viability, T/C (compound 10 µM) 25.3% and 31.1% and 29.9%

Nc1ccccc1NC(=O)c1ccc(CNC(=O)OCc2cccnc2)cc1 + Cc1cncc(-c2nc(NCCc3c[nH]c4ccccc34)c3ncn(C(C)C)c3n2)c1
4610 nM: IC50 [2]
active: viability, T/C [11] 6.54% | viability, T/C [17] 4.51% | viability, T/C [23] 3.52% | viability, T/C [29] 1.13% | viability, T/C [30] 2.83% | viability, T/C [31] 3.36% | viability, T/C [32] 4.55% | viability, T/C [33] 1.45% | viability, T/C [34] 6% | viability, T/C [35] 0.4%
4100 nM: IC50 [4]
1740 nM: IC50 [1]
inactive: viability, T/C [6] 87.7% | viability, T/C [7] 91% | viability, T/C [8] 97.5% | viability, T/C [9] 48.9% | viability, T/C [10] 43.2% | viability, T/C [12] 67.6% | viability, T/C [13] 104% | viability, T/C [14] 79.5% | viability, T/C [15] 83.4% | viability, T/C [16] 72.2% | viability, T/C [18] 105% | viability, T/C [19] 89.6% | viability, T/C [20] 79.8% | viability, T/C [21] 78.5% | viability, T/C [22] 57.8% | viability, T/C [24] 64.2% | viability, T/C [25] 61% | viability, T/C [26] 62.3% | viability, T/C [27] 65.3% | viability, T/C [28] 68.1%
3440 nM: IC50 [3]
< 31.6 nM: IC50 [5]

COc1cc(Nc2ncc3c(n2)-c2ccc(Cl)cc2C(c2c(F)cccc2OC)=NC3)ccc1C(=O)O + Cc1ccccc1N=Nc1ccc(NC(=O)c2ccnn2C)c(C)c1
101 nM: IC50 [2]
inactive: viability, T/C [6] 72.5% | viability, T/C [7] 55.7% | viability, T/C [8] 36.1% | viability, T/C [9] 31.9% | viability, T/C [10] 31.6% | viability, T/C [11] 39.4% | viability, T/C [12] 66.7% | viability, T/C [13] 50.1% | viability, T/C [14] 32.8% | viability, T/C [15] 32.5% | viability, T/C [16] 33.8% | viability, T/C [17] 34.3% | viability, T/C [18] 65.1% | viability, T/C [19] 47.6% | viability, T/C [20] 31.6% | viability, T/C [21] 31.2% | viability, T/C [22] 30.4% | viability, T/C [23] 34.8% | viability, T/C [24] 57.4% | viability, T/C [25] 45.9% | viability, T/C [26] 27.5% | viability, T/C [27] 28.7% | viability, T/C [28] 27.5% | viability, T/C [29] 30.1% | viability, T/C [30] 60.4% | viability, T/C [31] 49.1% | viability, T/C [32] 34.8% | viability, T/C [33] 36.9% | viability, T/C [34] 37% | viability, T/C [35] 41.7%
71 nM: IC50 [5]
66.2 nM: IC50 [4]
85.5 nM: IC50 [3]
139 nM: IC50 [1]

Cn1ncnc1C1c2n[nH]c(=O)c3cc(F)cc(c23)NC1c1ccc(F)cc1 (configuration not stated) + Cc1ccccc1N=Nc1ccc(NC(=O)c2ccnn2C)c(C)c1
inactive: viability, T/C (second compound 0.1 µM, first compound 0.000316 µM) 103% | viability, T/C (second compound 0.1 µM, first compound 0.001 µM) 114% | viability, T/C (second compound 0.1 µM, first compound 0.00316 µM) 107% | viability, T/C (second compound 0.1 µM, first compound 0.01 µM) 83.6% | viability, T/C [6] 81.1% | viability, T/C [7] 63.8% | viability, T/C (second compound 0.316 µM, first compound 0.000316 µM) 98.4% | viability, T/C (second compound 0.316 µM, first compound 0.001 µM) 100% | viability, T/C (second compound 0.316 µM, first compound 0.00316 µM) 103% | viability, T/C (second compound 0.316 µM, first compound 0.01 µM) 74.4% | viability, T/C [12] 76.1% | viability, T/C [13] 69% | viability, T/C (second compound 1 µM, first compound 0.000316 µM) 92% | viability, T/C (second compound 1 µM, first compound 0.001 µM) 96.5% | viability, T/C (second compound 1 µM, first compound 0.00316 µM) 95.7% | viability, T/C (second compound 1 µM, first compound 0.01 µM) 66.5% | viability, T/C [18] 85% | viability, T/C [19] 62.4% | viability, T/C (second compound 3.16 µM, first compound 0.000316 µM) 83.9% | viability, T/C (second compound 3.16 µM, first compound 0.001 µM) 83.7% | viability, T/C (second compound 3.16 µM, first compound 0.00316 µM) 86.9% | viability, T/C (second compound 3.16 µM, first compound 0.01 µM) 73.6% | viability, T/C [24] 78.3% | viability, T/C [25] 61.1% | viability, T/C (second compound 10 µM, first compound 0.000316 µM) 78.2% | viability, T/C (second compound 10 µM, first compound 0.001 µM) 77.8% | viability, T/C (second compound 10 µM, first compound 0.00316 µM) 77.2% | viability, T/C (second compound 10 µM, first compound 0.01 µM) 73.5% | viability, T/C [30] 69.2% | viability, T/C [31] 66%
> 100 nM: IC50 [1] | IC50 [2] | IC50 [3] | IC50 [4] | IC50 [5]
